According to US20210186905A1, “ENHANCING T-CELL FUNCTION AND TREATING A T-CELL DYSFUNCTIONAL DISORDER WITH A COMBINATION OF AN LSD INHIBITOR AND A PD-1 BINDING ANTAGONIST” (EpiAxis Therapeutic Pty Ltd, priority 2017, published 2021):
Structures can show the parent of a compound that is named as a salt.

Columns and labels:
CD4+/CD8+ T-cells = experiment: Flow cytometry of T-cell populations (naive, effector and central memory) in 4T1 mice; assay type: in vivo, mouse
Procedure: (§1) FIG. 5 is a graphical representation showing that dual epigenetic-immunotherapy re-educates and re-programs the T-cell repertoire. A. Cells stimulated with PMA/ionomycin for 4 hours in the presence of Brefeldin A. Cells were surfaced stained with CD45, CD3, CD4, CD8, CD44, CD62L (for naïve, effector and central memory), CD25 and FoxP3 (for Tregs) and analyzed via Flow cytometry. A Mann-Whitney non-parametric t-test was used to compare control vs other groups (*p<0.05, n=2-5). […] Representative images for each dataset are shown. TNFI values for EOMES, TBET and Ki67 measured using Image) to select the nucleus minus background. Graphs represent the % change of expression relative to control group for CD8^+ T-cells. (n>20 individual cells, Group A=Control, Group C: PD1 (10 mg/kg), Group D: Phenelzine (40 mg/kg), Group F: PD1+Phenelzine). C. Cells stimulated with PMA/ionomycin for 4 hours in the presence of Brefeldin A. Cell were surfaced stained with CD45, CD3, CD4, CD8 and intracellular staining of IFN-γ, IL-2 and TNF-α in the presence of Brefeldin A and analyzed via flow cytometry. A Mann-Whitney non-parametric t-test was used to compare control vs other groups (*p<0.05, **p<0.008; n=2-5). […] Representative images for each dataset are shown. TNFI values for TNFα and IFNγ measured using ImageJ to select the nucleus minus background. […]

CD4+ and CD8+ T-cells = experiment: Flow cytometry, intracellular staining of IFN-γ, IL-2 and TNF-α after PMA/ionomycin; assay type: in vivo, mouse
Procedure: FIG. 5 is a graphical representation showing that dual epigenetic-immunotherapy re-educates and re-programs the T-cell repertoire. A. Cells stimulated with PMA/ionomycin for 4 hours in the presence of Brefeldin A. Cells were surfaced stained with CD45, CD3, CD4, CD8, CD44, CD62L (for naïve, effector and central memory), CD25 and FoxP3 (for Tregs) and analyzed via Flow cytometry. A Mann-Whitney non-parametric t-test was used to compare control vs other groups (*p<0.05, n=2-5). […] Representative images for each dataset are shown. TNFI values for EOMES, TBET and Ki67 measured using Image) to select the nucleus minus background. Graphs represent the % change of expression relative to control group for CD8^+ T-cells. (n>20 individual cells, Group A=Control, Group C: PD1 (10 mg/kg), Group D: Phenelzine (40 mg/kg), Group F: PD1+Phenelzine). C. Cells stimulated with PMA/ionomycin for 4 hours in the presence of Brefeldin A. Cell were surfaced stained with CD45, CD3, CD4, CD8 and intracellular staining of IFN-γ, IL-2 and TNF-α in the presence of Brefeldin A and analyzed via flow cytometry. A Mann-Whitney non-parametric t-test was used to compare control vs other groups (*p<0.05, **p<0.008; n=2-5). […] Representative images for each dataset are shown. TNFI values for TNFα and IFNγ measured using ImageJ to select the nucleus minus background. Graphs represent the % change of expression relative to control group for CD8^+ T-cells. […]
Cells were surfaced stained with CD49b, F4/80 and intracellular stained for IFN-γ, TNF-α and IL-10. To label NK cells and the macrophages (M1/M2) in the tumor microenvironment or a suite of antibodies to label CD8^+ T-Cells (Cells were surfaced stained with CD45, CD3, CD4, CD8, CD44, CD62L (for naïve, effector and central memory). Cells were finally resuspended in PBS 2% FBS and flow cytometry performed on FACS Fortessa (BD) or FACS LSRII (BD). Analysis of data was done using FlowJo® analysis software and % cell populations calculated from the raw data. A Mann-Whitney non-parametric t-test was used to compare control vs other groups.

[1] = test system: T-cell activation and exhaustion genes; experiment: Nanostring transcript analysis of CD8+ T-cells from 4T1 metastatic mouse model; assay type: in vivo
Procedure: as §1

For `NNCCc1ccccc1` (racemic) [phenelzine sulfate, (±)-2-phenylethylhydrazine], the “CD8+ central memory and effector memory populations” value (CD4+/CD8+ T-cells) was “enhance”, the “IL-2 production by CD4+ T-cells” value (CD4+ and CD8+ T-cells; CD4+ T-cells) was “much more efficient” and the “pro-inflammatory/Th1 response (IFN-γ, IL-2 and TNF-α)” value (CD4+ and CD8+ T-cells; CD4+ and CD8+ T-cells, compared to the control) was “better pro-inflammatory/Th1 response”. The “production of these cytokines (IFN-γ, IL-2, TNF-α)” value (CD4+ and CD8+ T-cells; as compared to the control) was “seems to increase” and the “exhaustive signature genes such as CTLA4 and LAG3” value [1] was “inhibited”.
